Test system: 941728-121-R-J1-PDC complex spheroid viability
Assay: Anticancer human tumor 941728-121-R-J1-PDC patient-derived lung adenocarcinoma cell line growth inhibition [RAS]
Conditions: for IC50: curve of first compound; for viability, T/C: stronger effect = lower value; active = viability on the fitted dose curve at most 10% of control; inactive = the rest
Procedure, shortened: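 Agents were tested in combination matrices in half-log decrements from a top concentration at or near clinical Cmax (10 microM if undetermined). Targets were multi-cell spheroids of tumour lines plus HUVEC and MSC stromal cells.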
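Note: spheroids exposed to compounds for 7 days before readout.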
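Throughout, for viability, T/C: 100% = DMSO vehicle control viability.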

CC(C)NCC(C(=O)N1CCN(c2ncnc3c2C(C)CC3O)CC1)c1ccc(Cl)cc1 (configuration not stated) + CCn1c(-c2cccnc2C(C)OC)c2c3cc(ccc31)N1CCOC(CC(NC(=O)C(C(C)C)N(C)C(=O)C3(F)CCN(C(=O)C#CC(C)(C)N(C)C)CC3)C(=O)N3CCCC(N3)C(=O)OCC(C)(C)C2)C1
< 31.6 nM: IC50 (second compound 0.000949 µM) | IC50 (second compound 0.003 µM) | IC50 (second compound 0.00949 µM) | IC50 (second compound 0.03 µM) | IC50 (second compound 0.0949 µM) | IC50 (second compound 0.3 µM)
active: viability, T/C (second compound 0.000949 µM, first compound 10 µM) 7.61%
inactive: viability, T/C (second compound 0.000949 µM, first compound 0.0316 µM) 25.4% | viability, T/C (second compound 0.000949 µM, first compound 0.1 µM) 23% | viability, T/C (second compound 0.000949 µM, first compound 0.316 µM) 17.7% | viability, T/C (second compound 0.000949 µM, first compound 1 µM) 18.8% | viability, T/C (second compound 0.000949 µM, first compound 3.16 µM) 14.5% | viability, T/C (second compound 0.003 µM, first compound 0.0316 µM) 23.5% | viability, T/C (second compound 0.003 µM, first compound 0.1 µM) 21.9% | viability, T/C (second compound 0.003 µM, first compound 0.316 µM) 18.5% | viability, T/C (second compound 0.003 µM, first compound 1 µM) 18.1% | viability, T/C (second compound 0.003 µM, first compound 3.16 µM) 14.7% | viability, T/C (second compound 0.003 µM, first compound 10 µM) 9.24% | viability, T/C (second compound 0.00949 µM, first compound 0.0316 µM) 23.1% | viability, T/C (second compound 0.00949 µM, first compound 0.1 µM) 15.8% | viability, T/C (second compound 0.00949 µM, first compound 0.316 µM) 22.4% | viability, T/C (second compound 0.00949 µM, first compound 1 µM) 17.5% | viability, T/C (second compound 0.00949 µM, first compound 3.16 µM) 13.2% | viability, T/C (second compound 0.00949 µM, first compound 10 µM) 9.76% | viability, T/C (second compound 0.03 µM, first compound 0.0316 µM) 22.8% | viability, T/C (second compound 0.03 µM, first compound 0.1 µM) 22.1% | viability, T/C (second compound 0.03 µM, first compound 0.316 µM) 19.3% | viability, T/C (second compound 0.03 µM, first compound 1 µM) 17.7% | viability, T/C (second compound 0.03 µM, first compound 3.16 µM) 12.9% | viability, T/C (second compound 0.03 µM, first compound 10 µM) 10.9% | viability, T/C (second compound 0.0949 µM, first compound 0.0316 µM) 21.1% | viability, T/C (second compound 0.0949 µM, first compound 0.1 µM) 21.2% | viability, T/C (second compound 0.0949 µM, first compound 0.316 µM) 20.7% | viability, T/C (second compound 0.0949 µM, first compound 1 µM) 17.8% | viability, T/C (second compound 0.0949 µM, first compound 3.16 µM) 11.9% | viability, T/C (second compound 0.0949 µM, first compound 10 µM) 10.9% | viability, T/C (second compound 0.3 µM, first compound 0.0316 µM) 24.7% | viability, T/C (second compound 0.3 µM, first compound 0.1 µM) 22.9% | viability, T/C (second compound 0.3 µM, first compound 0.316 µM) 18.9% | viability, T/C (second compound 0.3 µM, first compound 1 µM) 17.1% | viability, T/C (second compound 0.3 µM, first compound 3.16 µM) 13% | viability, T/C (second compound 0.3 µM, first compound 10 µM) 11.2%

Source: PubChem BioAssay AID2060896 (Molecular Pharmacology Branch, DTP, NCI, 2025)
